The first assay concerns the target Xanthine oxidase (from bovine milk, Sigma) (Bos taurus (Bovine), UniProt P80457). As to the kind of experiment: Xanthine oxidase inhibitory activity. It is filed as biochemical. The settings on record: 100 μM xanthine final, absorbance at 290 nm. The protocol: (1) Preparation of Test Compounds
Test compounds were dissolved in DMSO (Wako) at 40 mM concentration and then diluted to intended concentrations with phosphate-buffered saline (PBS).
(2) Method for Measurement
Xanthine oxidase (from bovine milk, Sigma) was prepared with phosphate-buffered saline (PBS) at 0.02 units/mL, and then the solution was added to 96 well plates at 50 μL/well. In addition, test compounds diluted with PBS were added at 50 μL/well. Xanthine (Wako) at 200 μM prepared with PBS was added at 100 μL/well, and the reaction was conducted for 10 minutes at room temperature. Absorbance at 290 nm was measured using a microplate reader SpectraMax Plus 384 (Molecular device). The absorbance under a condition without xanthine is 0%, and control without test compounds is 100%. Fifty % inhibitory concentration of a test compound (IC50) was calculated (Tables 91 to 92). Ex. No in the table indicates Example number.
Xanthine oxidase (from bovine milk, Sigma), sequence (P80457 whole entry): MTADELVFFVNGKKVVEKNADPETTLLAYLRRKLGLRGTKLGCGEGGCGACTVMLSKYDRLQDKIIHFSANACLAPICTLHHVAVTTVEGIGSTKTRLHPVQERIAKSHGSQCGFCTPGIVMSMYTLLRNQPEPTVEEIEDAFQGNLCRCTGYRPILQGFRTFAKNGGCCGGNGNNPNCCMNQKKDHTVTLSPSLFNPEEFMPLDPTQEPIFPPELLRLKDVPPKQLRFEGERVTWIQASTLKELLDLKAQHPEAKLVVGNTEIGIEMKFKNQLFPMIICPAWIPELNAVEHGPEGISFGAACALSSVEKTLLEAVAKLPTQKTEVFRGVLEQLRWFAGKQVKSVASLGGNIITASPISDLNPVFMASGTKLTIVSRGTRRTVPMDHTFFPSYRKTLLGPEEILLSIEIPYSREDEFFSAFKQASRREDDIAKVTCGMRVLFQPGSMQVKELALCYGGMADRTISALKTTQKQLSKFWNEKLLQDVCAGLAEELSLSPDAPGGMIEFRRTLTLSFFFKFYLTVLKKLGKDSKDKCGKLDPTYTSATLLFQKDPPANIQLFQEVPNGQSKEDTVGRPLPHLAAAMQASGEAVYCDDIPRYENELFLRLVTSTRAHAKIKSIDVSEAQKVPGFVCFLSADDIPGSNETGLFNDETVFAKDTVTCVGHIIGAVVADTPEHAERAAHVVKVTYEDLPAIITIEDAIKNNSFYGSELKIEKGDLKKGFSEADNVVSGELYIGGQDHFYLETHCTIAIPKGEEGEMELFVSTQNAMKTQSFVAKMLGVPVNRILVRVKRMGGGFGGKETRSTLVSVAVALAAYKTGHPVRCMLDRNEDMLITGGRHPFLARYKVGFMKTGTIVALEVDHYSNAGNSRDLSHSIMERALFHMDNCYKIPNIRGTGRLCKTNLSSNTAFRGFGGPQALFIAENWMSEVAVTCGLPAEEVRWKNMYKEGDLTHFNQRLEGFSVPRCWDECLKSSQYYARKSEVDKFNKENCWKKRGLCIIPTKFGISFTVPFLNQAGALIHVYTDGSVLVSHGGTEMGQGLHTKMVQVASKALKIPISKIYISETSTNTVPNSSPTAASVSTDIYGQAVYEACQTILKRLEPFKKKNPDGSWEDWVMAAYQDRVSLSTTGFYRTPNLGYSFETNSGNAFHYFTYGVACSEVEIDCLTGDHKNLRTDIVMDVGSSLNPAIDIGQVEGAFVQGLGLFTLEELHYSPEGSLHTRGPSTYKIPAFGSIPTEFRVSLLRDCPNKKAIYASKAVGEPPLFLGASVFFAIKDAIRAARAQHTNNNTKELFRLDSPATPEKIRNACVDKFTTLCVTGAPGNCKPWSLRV
As for `CC(C)(C)c1nn(-c2ccc(C(=O)O)c(O)c2)cc1C#N` [Example 352], the IC50 turned out to be 3.2 nM.
On the same count and under the same terms, for `N#Cc1cn(-c2ccc(C(=O)O)c(O)c2)cc1-c1ccc(COc2ccccc2)cc1` [Example 334] the value was 59.5 nM.
The same measure, in the same setting: the figure for `N#Cc1cccc(-c2cn(-c3ccc(C(=O)O)c(O)c3)cc2C#N)c1` [Example 330] is 19.9 nM.
The molecule `N#Cc1cn(-c2ccc(C(=O)O)c(O)c2)cc1-c1cccc2ccccc12` [Example 325] registered an IC50 of 13.1 nM.
Same read-out and setting: the figure for `N#Cc1cn(-c2ccc(C(=O)O)c(O)c2)cc1-c1ccco1` [Example 356] is 1.7 nM; for `N#Cc1cn(-c2ccc(C(=O)O)c(O)c2)cc1-c1ccccc1F` [Example 319] it is 8.1 nM.
Still for that read-out and setting: for `N#Cc1cn(-c2cc(C(=O)O)ccn2)cc1-c1ccc(Cl)cc1` [Example 365] the value was 33.1 nM; for `Cc1cccc(-c2cn(-c3cc(C(=O)O)ccn3)cc2C#N)c1` [Example 362], 25.6 nM.
On the same count and under the same terms, for `CCOc1cccc(-c2cn(-c3ccc(C(=O)O)c(O)c3)cc2C#N)c1` [Example 344] the value was 13.5 nM; for `CCOc1ccccc1-c1cn(-c2ccc(C(=O)O)c(O)c2)cc1C#N` [Example 335], 7.9 nM; for `CSc1ccccc1-c1cn(-c2ccc(C(=O)O)c(O)c2)cc1C#N` [Example 349], 6.4 nM.
`CCOc1ccc(-c2cn(-c3ccc(C(=O)O)c(O)c3)cc2C#N)cc1` [Example 340] had an IC50 of 5.8 nM.
Still for that read-out and setting: for `COc1ccccc1-c1cn(-c2cc(C(=O)O)ccn2)cc1C#N` [Example 366] the value was 29.3 nM.

The assay is the same for the next values; noted with them: 0.02 units/mL, xanthine 200 μM, 10 minutes at room temperature, absorbance at 290 nm.
Turning to `N#Cc1cn(-c2ccc(C(=O)O)cc2)cc1C(=O)NCc1ccccc1` [Example 227], half-maximal inhibition (IC50) was put at 3.6 nM.
The molecule `COc1cccc(COc2cccc(-c3cn(-c4ccc(C(=O)O)cc4)cc3C#N)c2)c1` [Example 198] displayed an IC50 of 111 nM.
The same measure, in the same setting: the figure for `COCCOc1cn(-c2ccc(C(=O)O)cc2)cc1C#N` [Example 234] is 4 nM; for `Cc1c(CC(C)C)c(C#N)cn1-c1ccc(C(=O)O)cc1` [Example 242] it is 9 nM; for `N#Cc1cn(-c2ccc(C(=O)O)cc2)cc1-c1cccc(OCc2ccccc2)c1` [Example 156] it is 52.9 nM.
On the same count and under the same terms, the figure for `N#Cc1cn(-c2ccc(C(=O)O)cc2)cc1-c1ccc(-c2ccccc2)cc1` [Example 163] is 41.7 nM.
On the same count and under the same terms, for `N#Cc1cn(-c2ccc(C(=O)O)cc2)cc1-c1cccn1Cc1ccccc1` [Example 256] the value was 15.2 nM.
`N#Cc1cn(-c2ccc(C(=O)O)cc2)cc1OCc1ccccc1` [Example 18, 4-(3-Cyano-4-benzyloxypyrrole-1-yl)benzoic acid] came in with an IC50 of 7.1 nM.
On to `COCOc1ccccc1-c1cn(-c2ccc(C(=O)O)cc2)cc1C#N` [Example 143], for which 4.6 nM corresponded to half-maximal inhibition (IC50).
In turn, `N#Cc1cn(-c2ccc(C(=O)O)cc2)cc1-c1cccc(OCC(=O)O)c1` [Example 159] had an IC50 of 2.7 nM. This IC50 is about 1.7-fold lower than that of the molecule before.
`N#Cc1cn(-c2ccc(C(=O)O)cc2)cc1-c1cccc(OCCO)c1` [Example 153] came in with an IC50 of 2.4 nM.
The same measure, in the same setting: the figure for `COc1ccc(-c2cn(-c3ccc(C(=O)O)c(O)c3)cc2C#N)c(OC)c1` [Example 266] is 10.4 nM; for `COCCOc1ccccc1-c1cn(-c2ccc(C(=O)O)cc2)cc1C#N` [Example 201] it is 11.1 nM; for `CCCCc1cn(-c2ccc(C(=O)O)cc2)cc1C#N` [Example 240] it is 3.3 nM.
For `N#Cc1cn(-c2ccc(C(=O)O)cc2)cc1-c1cccc(OCc2ccccc2F)c1` [Example 189], half-maximal inhibition (IC50) was put at 63.4 nM.
`Cc1cn(-c2ccc(C(=O)O)cc2)cc1C#N` [Example 236] displayed an IC50 of 81.2 nM.
Same read-out and setting: the figure for `N#Cc1cn(-c2ccc(C(=O)O)cc2)cc1-c1cccc2ccccc12` [Example 209] is 7.1 nM.
The molecule `N#Cc1ccc(-c2cn(-c3ccc(C(=O)O)cc3)cc2C#N)cc1` [Example 212] gave an IC50 of 5.4 nM.
On the same count and under the same terms, the figure for `CC(C)n1cc(-c2cn(-c3ccc(C(=O)O)cc3)cc2C#N)c2ccccc21` [Example 252] is 33.2 nM.

The record behind these values is patent US9023882B2, “5-membered nitrogen containing heterocyclic derivatives and pharmaceutical compositions comprising the same” (Kissei Pharmaceutical Co., Ltd., priority 2007, dated 2015).
